# Data as given in PMC11487632 (Molecular Pharmaceutics, 2024).
# Where two headings read alike, the source gives them in different places.
# How the values were obtained:
# [1] = cited from earlier work
# [2] = Co-dissolution procedure: apparent solubility of API mixtures with CFN, TPH, TBR or XAT (HPLC, Noyes-Whitney fit); type: physicochemical; details: for increase of XAT-derivative solubility by IBP and DCF (NSAIDs): equimolar IBP or DCF mixtures; for effect of codissolved CFN on API solubility / saturated concentration / effect of codissolved TBR on API dissolution curve / saturated concentration / effect of codissolved TPH on API solubility / saturated concentration / effect of codissolved XAT on API dissolution curve / saturated concentration: equimolar mixture
# [3] = Pre-dissolution procedure: apparent solubility of pure APIs in buffer with predissolved XAT derivatives (HPLC, Noyes-Whitney fit); type: physicochemical; details: for effect of predissolved TPH on API solubility: 5-20 mM TPH in 100 mM phosphate buffer pH 6.8; for effect of predissolved CFN on API solubility: 10-50 mM CFN in 100 mM phosphate buffer pH 6.8; for solubility: phosphate buffer, 25 °C, pH 6.8, aqueous buffer, thermodynamic from solid, read-out: solubility (eq 1); for solubility / saturated concentration (curve fitting eq 1): 100 mM phosphate buffer pH 6.8, 298 K
# Procedure: The sample solution was filtered with a membrane filter (Minisart RC 4 with 0.22 μm pore size; Sartorius, Göttingen, Germany). The fractionation of the API or XAT derivative in the filtrate was performed via HPLC (Shimadzu Co., Kyoto, Japan) using a mobile phase of 25 mM citric acid buffer (pH 3.0):methanol of 3:7 at a flow rate of 1 mL/min.
# To assess the apparent solubility of pure APIs in solutions of XAT derivatives, “pre-dissolution procedures” were conducted. […] The API samples, adjusted to exceed saturation, were added to 5 mL of the dissolving medium and shaken in a water bath at 298 K for a specific duration. The concentration of API in the supernatant was measured using HPLC. The solubility concentrations of all APIs were determined from each API’s standard curves. The R-square values of all standard curves are over 0.995.
# The dissolution process of the pure APIs or API mixtures assumably corresponded to a linear correlation or a saturation curve. The API samples were homogenized using an agate mortar and pestle to align the particle sizes without sieving, considering the potential contamination of superfine powders. The immediate dissolution of the adhering powders in the solution at t = 0 was assumed; additionally, their concentrations were treated as the initial concentration (C = C0) if a sink condition was applicable owing to the higher solubility of the API.
# For curves resembling a saturation curve, nonlinear curve fitting using the Noyes–Whitney integral expression (eq 1) was applied:[48],[49] [drawing 1] 1 where Ceq is the apparent solubility of the API, k is the dissolution rate constant, and S is the surface area of the sample particles. […] Curve-fitting procedures employed the Solver module of Microsoft Excel 2016 with the implemented GRG nonlinear option. The recrystallized precipitates were verified by X-ray powder diffraction (XRPD) and differential scanning calorimetry (DSC); no cocrystals or other generated solids were observed.
# [4] = cited from earlier work; remark: listed apart in the source
# [5] = set-up: method as in previous study; details: ref previous study, cited from earlier work; for solubility during the predissolution procedure: presence or absence of cimetidine (CIM) in solution insignificant; for solubility during the codissolution procedure: simultaneous addition of CIM crystal powder
# [6] = ref 18 (given for CFN and TPH only); cited from earlier work
# [7] = ref 18 (given for CFN and TPH only); cited from earlier work; remark: listed apart in the source
# [8] = ref 18 (not printed for TBR and XAT); cited from earlier work
structure (smiles),measurement,setting,value
"Cn1c(=O)c2c(ncn2C)n(C)c1=O [CFN, caffeine]",distribution volume Vd,[1]; CFN,0.7 L/kg
"O=c1[nH]c(=O)c2[nH]cnc2[nH]1 [XAT, xanthine]",increase of XAT-derivative solubility by IBP and DCF (NSAIDs),[2],2 fold
"O=C(O)Cc1ccccc1Nc1c(Cl)cccc1Cl [DCF, diclofenac]",effect of predissolved TPH on API solubility,[3],enhanced
same,effect of predissolved CFN on API solubility,[3],enhanced
same,solubility,[3]; in the absence of CFN (CFN series),1760 ± 44 µM
same,solubility,[3]; in the absence of TPH (TPH series),1690 ± 53 µM
same,effect of codissolved CFN on API solubility / saturated concentration,[2]; 100 mM phosphate buffer pH 6.8,increased
same,effect of codissolved TBR on API dissolution curve / saturated concentration,[2]; 100 mM phosphate buffer pH 6.8,did not significantly differ
same,effect of codissolved TPH on API solubility / saturated concentration,[2]; 100 mM phosphate buffer pH 6.8,increased
same,effect of codissolved XAT on API dissolution curve / saturated concentration,[2]; 100 mM phosphate buffer pH 6.8,did not significantly differ
same,solubility,[4]; 50 mM MES buffer (pH 5.5),~100 µM
same,solubility,[4]; 100 mM phosphate buffer (pH 6.45),approximately 0.7 mM
same,change of solubility on addition of 10 mM LDC to the dissolution buffer,[4]; within the buffering capacity range,increased
same,effect of famotidine (FAM) on final solubility,"[5]; equilibrated solution, FAM delayed dissolution",not affected
same,solubility during the predissolution procedure,[5],829 µM
same,solubility during the codissolution procedure,[5],3390 µM
"Cn1c(=O)c2[nH]cnc2n(C)c1=O [TPH, theophylline]",effect of IBP on saturation concentration of the XAT derivative,"[2]; equimolar mixtures with IBP, effect of DCF greater than that of IBP",increased
same,distribution volume Vd,"[1]; TPH, no reference given",0.5 L/kg
same,therapeutic range in the blood,[1]; narrow therapeutic range,0.06 to 0.11 mmol/L
same,water solubility,[6],40000 µM
same,log P,[7],0.00
"CC(C)Cc1ccc([C@H](C)C(=O)O)cc1 [IBP, (S)-(+)-ibuprofen]",effect of predissolved TPH on API solubility,[3],did not influence
same,effect of predissolved CFN on API solubility,[3],did not influence
same,saturated concentration (curve fitting eq 1),"[3]; predissolved CFN series, irrespective of CFN",17.22 ± 0.61 mM
same,saturated concentration (curve fitting eq 1),"[3]; predissolved TPH series, irrespective of TPH",17.34 ± 0.86 mM
same,effect of codissolved CFN on API solubility / saturated concentration,[2]; 100 mM phosphate buffer pH 6.8,decreased
same,effect of codissolved TBR on API dissolution curve / saturated concentration,[2]; 100 mM phosphate buffer pH 6.8,did not significantly affect
same,effect of codissolved TPH on API solubility / saturated concentration,[2]; 100 mM phosphate buffer pH 6.8,decreased
same,effect of codissolved XAT on API dissolution curve / saturated concentration,[2]; 100 mM phosphate buffer pH 6.8,did not significantly affect
same,solubility,[4]; 25 mM phosphate buffer (pH 6.88),~20000 µM
same,solubility,[4]; 100 mM phosphate buffer (pH 7.18),approximately 40 mM
same,change of solubility in mixtures with lidocaine (LDC),"[4]; mixtures with LDC, without pH fluctuations",reduced
"COc1ccc2c(c1)c(CC(=O)O)c(C)n2C(=O)c1ccc(Cl)cc1 [INM, indomethacin]",effect of CFN added to the dissolving medium on solubility,[3]; data not published,enhanced
same,solubility during the predissolution procedure,[5],625 µM
same,solubility during the codissolution procedure,[5],3340 µM
"Cn1cnc2c1c(=O)[nH]c(=O)n2C [TBR, theobromine]",solubility,"[2]; 25 °C, aqueous buffer, thermodynamic from solid, pure, 100 mM phosphate buffer pH 6.8, read-out: solubility of the pure XAT derivative",1000 µM
same,increase of XAT-derivative solubility by IBP and DCF (NSAIDs),[2],3 fold
same,water solubility,[6],2000 µM
same,log P,[7],−0.78
same,pKa,[8],10.05
